Results reported in patent US20230148600A1, “PESTICIDALLY ACTIVE THIOPHENE DERIVATIVES” (SYNGENTA PARTICIPATIONS AG, priority 2017, published 2023).

Experiments:
Format in all cases: in vivo
[1] = test system: Diabrotica Balteata (Corn Root Worm); assay: Diabrotica balteata (corn root worm) mortality on sprayed maize sprouts; conditions: 96 h, application rate 200 ppm, L2 larvae, assessed 4 days after infestation
Experimental: Diabrotica Balteata (Corn Root Worm)
Maize sprouts placed onto an agar layer in 24-well microtiter plates were treated with aqueous test solutions prepared from 10 ′000 ppm DMSO stock solutions by spraying. After drying, the plates were infested with L2 larvae (6 to 10 per well). The samples were assessed for mortality 4 days after infestation.

[2] = test system: Euschistus Heros (Neotropical BROWN Stink Bug); assay: Euschistus heros (neotropical brown stink bug) feeding/contact activity; conditions: 120 h, application rate 200 ppm, soybean leaves sprayed, N2 nymphs, assessed 5 days after infestation
Experimental: Euschistus Heros (Neotropical BROWN Stink Bug) Feeding/Contact Activity
Soybean leaves on agar in 24-well microtiter plates were sprayed with aqueous test solutions prepared from 10 ′000 ppm DMSO stock solutions. After drying the leaves were infested with N2 nymphs. The samples were assessed for mortality 5 days after infestation.

[3] = test system: Myzus Persicae (Green Peach Aphid); assay: Myzus persicae (green peach aphid) feeding/contact activity; conditions: foliar, 144 h, application rate 200 ppm, sunflower leaf discs sprayed, aphid population of mixed ages, assessed 6 days after infestation
Experimental: Myzus Persicae (Green Peach Aphid) Feeding/Contact Activity
(§1) Sunflower leaf discs were placed onto agar in a 24-well microtiter plate and sprayed with aqueous test solutions prepared from 10 ′000 ppm DMSO stock solutions. After drying, the leaf discs were infested with an aphid population of mixed ages. The samples were assessed for mortality 6 days after infestation.

[4] = test system: Plutella Xylostella (Diamond Back Moth); assay: Plutella xylostella (diamond back moth) feeding/contact activity; conditions: 120 h, application rate 200 ppm, artificial diet treated by pipetting, L2 larvae, assessed 5 days after infestation
Experimental: Plutella Xylostella (Diamond Back Moth) Feeding/Contact Activity
24-well microtiter plates with artificial diet were treated with aqueous test solutions prepared from 10 ′000 ppm DMSO stock solutions by pipetting. After drying, the plates were infested with L2 larvae (10 to 15 per well). The samples were assessed for mortality 5 days after infestation.

[5] = test system: Spodoptera Littoralis (Egyptian Cotton Leaf Worm); assay: Spodoptera littoralis (Egyptian cotton leaf worm) feeding/contact activity; conditions: foliar, 72 h, application rate 200 ppm, cotton leaf discs sprayed, L1 larvae, assessed 3 days after infestation
Experimental: Spodoptera Littoralis (Egyptian Cotton Leaf Worm) Feeding/Contact Activity
Cotton leaf discs were placed onto agar in 24-well microtiter plates and sprayed with aqueous test solutions prepared from 10 ′000 ppm DMSO stock solutions. After drying the leaf discs were infested with five L1 larvae. The samples were assessed for mortality 3 days after infestation.

[6] = test system: Tetranychus Urticae (Two-Spotted Spider Mite); assay: Tetranychus urticae (two-spotted spider mite) feeding/contact activity; conditions: foliar, 192 h, application rate 200 ppm, bean leaf discs sprayed, mite population of mixed ages, assessed 8 days after infestation, read-out: mortality on mixed population (mobile stages)
Experimental: Tetranychus Urticae (Two-Spotted Spider Mite) Feeding/Contact Activity
Bean leaf discs on agar in 24-well microtiter plates were sprayed with aqueous test solutions prepared from 10 ′000 ppm DMSO stock solutions. After drying the leaf discs were infested with a mite population of mixed ages. The samples were assessed for mortality on mixed population (mobile stages) 8 days after infestation.

[7] = test system: Thrips Tabaci (Onion Thrips); assay: Thrips tabaci (onion thrips) feeding/contact activity; conditions: foliar, 144 h, application rate 200 ppm, sunflower leaf discs sprayed, thrips population of mixed ages, assessed 6 days after infestation
Experimental: Thrips Tabaci (Onion Thrips) Feeding/Contact Activity
as §1, with “on” for “onto”, “in” for “in a”, “plates” for “plate”, “drying” for “drying,”, “a thrips” for “an aphid”

Measured: mortality at 200 ppm

N#Cc1sc(-c2cnn(-c3c(Cl)cc(C(F)(C(F)(F)F)C(F)(F)F)cc3Cl)c2)cc1C(=O)NC1CC1 [Example 1, 2-cyano-N-cyclopropyl-5-[1-[2,6-dichloro-4-[1,2,2,2-tetrafluoro-1-(trifluoromethyl)ethyl]phenyl]pyrazol-4-yl]thiophene-3-carboxamide]
≥ 80%: all assays above

O=C(NC1CC1)c1cc(-c2cnn(-c3c(Cl)cc(C(F)(C(F)(F)F)C(F)(F)F)cc3Cl)c2)sc1Cl [Example 2, 2-chloro-N-cyclopropyl-5-[1-[2,6-dichloro-4-[1,2,2,2-tetrafluoro-1-(trifluoromethyl)ethyl]phenyl]pyrazol-4-yl]thiophene-3-carboxamide]
≥ 80%: all assays above

N#Cc1sc(-c2cnn(-c3c(Cl)cc(C(F)(C(F)(F)F)C(F)(F)F)cc3Cl)c2)cc1C(=O)NC1(C#N)CC1 [Example 3, 2-cyano-N-(1-cyanocyclopropyl)-5-[1-[2,6-dichloro-4-[1,2,2,2-tetrafluoro-1-(trifluoromethyl)ethyl]phenyl]pyrazol-4-yl]thiophene-3-carboxamide]
not listed: [3]
≥ 80%: all other assays above

N#CC1(NC(=O)c2cc(-c3cnn(-c4c(Cl)cc(C(F)(C(F)(F)F)C(F)(F)F)cc4Cl)c3)sc2Cl)CC1 [Example 4, 2-chloro-N-(1-cyanocyclopropyl)-5-[1-[2,6-dichloro-4-[1,2,2,2-tetrafluoro-1-(trifluoromethyl)ethyl]phenyl]pyrazol-4-yl]thiophene-3-carboxamide]
≥ 80%: all assays above

Cc1cc(C(F)(C(F)(F)F)C(F)(F)F)cc(C)c1-n1cc(-c2cc(C(=O)NC3CC3)c(C#N)s2)cn1 [Example 5, 2-cyano-N-cyclopropyl-5-[1-[2,6-dimethyl-4-[1,2,2,2-tetrafluoro-1-(trifluoromethyl)ethyl]phenyl]pyrazol-4-yl]thiophene-3-carboxamide]
not listed: [1] | [7]
≥ 80%: all other assays above

N#CC1(NC(=O)c2cc(-c3cnn(-c4ccc(C(F)(C(F)(F)F)C(F)(F)F)cc4Cl)c3)sc2Cl)CC1 [Example 6, 2-chloro-5-[1-[2-chloro-4-[1,2,2,2-tetrafluoro-1-(trifluoromethyl)ethyl]phenyl]pyrazol-4-yl]-N-(1-cyanocyclopropyl)thiophene-3-carboxamide]
≥ 80%: [2] | [4] | [5] | [6]

N#CC1(NC(=O)c2cc(-c3cnn(-c4c(Cl)cc(C(F)(C(F)(F)F)C(F)(F)F)cc4Br)c3)sc2Cl)CC1 [Example 7, 5-[1-[2-bromo-6-chloro-4-[1,2,2,2-tetrafluoro-1-(trifluoromethyl)ethyl]phenyl]pyrazol-4-yl]-2-chloro-N-(1-cyanocyclopropyl)thiophene-3-carboxamide]
≥ 80%: [2] | [4] | [5] | [6]

N#Cc1sc(-c2cnn(-c3ccc(C(F)(C(F)(F)F)C(F)(F)F)cc3Cl)c2)cc1C(=O)NC1CC1 [Example 8, 5-[1-[2-chloro-4-[1,2,2,2-tetrafluoro-1-(trifluoromethyl)ethyl]phenyl]pyrazol-4-yl]-2-cyano-N-cyclopropyl-thiophene-3-carboxamide]
not listed: [1] | [7]
≥ 80%: all other assays above

Cc1cc(C(F)(C(F)(F)F)C(F)(F)F)cc(C)c1-n1cc(-c2cc(C(=O)NC3(C#N)CC3)c(Cl)s2)cn1 [Example 10, 2-chloro-N-(1-cyanocyclopropyl)-5-[1-[2,6-dimethyl-4-[1,2,2,2-tetrafluoro-1-(trifluoromethyl)ethyl]phenyl]pyrazol-4-yl]thiophene-3-carboxamide]
not listed: [3]
≥ 80%: all other assays above

CCN(C(=O)c1cc(-c2cn(-c3c(Cl)cc(C(F)(C(F)(F)F)C(F)(F)F)cc3Cl)nn2)sc1C#N)C1CC1 [Example 11, 2-cyano-N-cyclopropyl-5-[1-[2,6-dichloro-4-[1,2,2,2-tetrafluoro-1-(trifluoromethyl)ethyl]phenyl]triazol-4-yl]-N-ethyl-thiophene-3-carboxamide]
not listed: [2] | [3]
≥ 80%: all other assays above

CN(C(=O)c1cc(-c2cn(-c3c(Cl)cc(C(F)(C(F)(F)F)C(F)(F)F)cc3Cl)nn2)sc1C#N)C1CC1 [Example 12, 2-cyano-N-cyclopropyl-5-[1-[2,6-dichloro-4-[1,2,2,2-tetrafluoro-1-(trifluoromethyl)ethyl]phenyl]triazol-4-yl]-N-methyl-thiophene-3-carboxamide]
not listed: [3]
≥ 80%: all other assays above

N#Cc1sc(-c2cn(-c3c(Cl)cc(C(F)(C(F)(F)F)C(F)(F)F)cc3Cl)nn2)cc1C(=O)NC1CC1 [Example 13, 2-cyano-N-cyclopropyl-5-[1-[2,6-dichloro-4-[1,2,2,2-tetrafluoro-1-(trifluoromethyl)ethyl]phenyl]triazol-4-yl]thiophene-3-carboxamide]
≥ 80%: [1] | [4] | [5] | [7]

CCN(C(=O)c1cc(-c2cn(-c3c(Cl)cc(C(F)(C(F)(F)F)C(F)(F)F)cc3Cl)nn2)sc1Cl)C1(C#N)CC1 [Example 14, 2-chloro-N-(1-cyanocyclopropyl)-5-[1-[2,6-dichloro-4-[1,2,2,2-tetrafluoro-1-(trifluoromethyl)ethyl]phenyl]triazol-4-yl]-N-ethyl-thiophene-3-carboxamide]
≥ 80%: [1] | [4] | [5] | [7]

CN(C(=O)c1cc(-c2cn(-c3c(Cl)cc(C(F)(C(F)(F)F)C(F)(F)F)cc3Cl)nn2)sc1Cl)C1(C#N)CC1 [Example 15, 2-chloro-N-(1-cyanocyclopropyl)-5-[1-[2,6-dichloro-4-[1,2,2,2-tetrafluoro-1-(trifluoromethyl)ethyl]phenyl]triazol-4-yl]-N-methyl-thiophene-3-carboxamide]
≥ 80%: [1] | [4] | [5] | [7]

N#CC1(NC(=O)c2cc(-c3cn(-c4c(Cl)cc(C(F)(C(F)(F)F)C(F)(F)F)cc4Cl)nn3)sc2Cl)CC1 [Example 16, 2-chloro-N-(1-cyanocyclopropyl)-5-[1-[2,6-dichloro-4-[1,2,2,2-tetrafluoro-1-(trifluoromethyl)ethyl]phenyl]triazol-4-yl]thiophene-3-carboxamide]
≥ 80%: [5] | [7]
